Reference: PubChem BioAssay AID248 (DTP/NCI, 2004)
Several values for one entry are separate records, joined by “and”; a condition that tells them apart may be missing. Identical values can stand only once. Inconclusive results and toxic doses are left out. No stated cut-off is given here; in the data, active means T/C of 150% or more; inactive means T/C below 125%.

Tested on: L1210 leukemia ip in BDF1 mice, survival T/C
Assay: NCI In Vivo Anticancer Drug Screen. Data for tumor model L1210 Leukemia (intraperitoneal) in B6D2F1 (BDF1) mice
Conditions: higher = longer survival
Summary of the method: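 Read-out is survival time, reported as the treated-group measurement over the vehicle-control measurement.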

Measured: T/C

O=P1(N(CCCl)CCCl)NCCCO1 (configuration not stated)
inactive: endpoint: mean survival time, dose: 0.9 mg/kg/injection, schedule: Q01DX009 (ip), vehicle: saline 99 % of control and 100 % of control | endpoint: mean survival time, dose: 1.0 mg/kg/injection, schedule: Q01DX Z (ip), vehicle: methylcellulose (MC) 93 % of control | endpoint: mean survival time, dose: 1.0 mg/kg/injection, schedule: Q01DX Z (oral), vehicle: saline 93 % of control | endpoint: mean survival time, dose: 1.0 mg/kg/injection, schedule: Q07DX Z (ip), vehicle: saline 103 % of control | endpoint: mean survival time, dose: 1.8 mg/kg/injection, schedule: Q01DX009 (ip), vehicle: saline 94 % of control | endpoint: mean survival time, dose: 2.5 mg/kg/injection, schedule: Q07DX Z (ip), vehicle: saline 97 % of control | endpoint: mean survival time, dose: 3.2 mg/kg/injection, schedule: Q01DX001 (ip), vehicle: saline 95 % of control | endpoint: mean survival time, dose: 3.5 mg/kg/injection, schedule: Q01DX009 (ip), vehicle: saline 100 % of control and 104 % of control | endpoint: mean survival time, dose: 3.5 mg/kg/injection, schedule: Q03HX032 (ip), vehicle: saline 110 % of control | endpoint: mean survival time, dose: 3.5 mg/kg/injection, schedule: Q## X032 (ip), vehicle: saline 110 % of control | endpoint: mean survival time, dose: 4.3 mg/kg/injection, schedule: Q01DX Z (ip), vehicle: saline 98 % of control | endpoint: mean survival time, dose: 5.0 mg/kg/injection, schedule: Q01DX Z (ip), vehicle: methylcellulose (MC) 105 % of control | endpoint: mean survival time, dose: 5.0 mg/kg/injection, schedule: Q07DX Z (ip), vehicle: saline 97 % of control | endpoint: mean survival time, dose: 5.36 mg/kg/injection, schedule: Q03HX032 (ip), vehicle: saline 102 % of control | endpoint: mean survival time, dose: 5.36 mg/kg/injection, schedule: Q## X032 (ip), vehicle: saline 102 % of control | endpoint: mean survival time, dose: 5.6 mg/kg/injection, schedule: Q13HX018 (ip), vehicle: saline 98 % of control | endpoint: mean survival time, dose: 6.0 mg/kg/injection, schedule: Q01DX Z (oral), vehicle: saline 108 % of control | endpoint: mean survival time, dose: 6.0 mg/kg/injection, schedule: Q03DX Z (ip), vehicle: saline 109 % of control | endpoint: mean survival time, dose: 6.25 mg/kg/injection, schedule: Q01DX009 (ip), vehicle: saline 104 % of control and 107 % of control | endpoint: mean survival time, dose: 6.25 mg/kg/injection, schedule: Q01DX Z (ip), vehicle: saline 102 % of control | endpoint: mean survival time, dose: 6.3 mg/kg/injection, schedule: Q01DX001 (ip), vehicle: saline 94 % of control | endpoint: mean survival time, dose: 7.13 mg/kg/injection, schedule: Q01DX Z (ip), vehicle: carboxymethylcellulose (CMC) 109 % of control | endpoint: mean survival time, dose: 7.5 mg/kg/injection, schedule: Q01DX009 (ip), vehicle: saline 110 % of control | endpoint: mean survival time, dose: 7.5 mg/kg/injection, schedule: Q01DX Z (ip), vehicle: saline 110 % of control | endpoint: mean survival time, dose: 7.5 mg/kg/injection, schedule: Q04DX002 (ip), vehicle: saline 94 % of control and 111 % of control | endpoint: mean survival time, dose: 8.5 mg/kg/injection, schedule: Q01DX Z (ip), vehicle: saline 110 % of control | endpoint: mean survival time, dose: 9.4 mg/kg/injection, schedule: Q01DX001 (ip), vehicle: water 103 % of control | endpoint: mean survival time, dose: 9.9 mg/kg/injection, schedule: Q01DX010 (ip), vehicle: saline 104 % of control | endpoint: mean survival time, dose: 10.0 mg/kg/injection, schedule: Q01DX Z (ip), vehicle: methylcellulose (MC) 104 % of control | endpoint: mean survival time, dose: 10.0 mg/kg/injection, schedule: Q07DX Z (ip), vehicle: saline 102 % of control | endpoint: mean survival time, dose: 11.25 mg/kg/injection, schedule: Q01DX001 (ip), vehicle: saline 98 % of control and 105 % of control | endpoint: mean survival time, dose: 11.3 mg/kg/injection, schedule: Q01DX Z (ip), vehicle: saline 113 % of control | endpoint: mean survival time, dose: 11.3 mg/kg/injection, schedule: Q## X Z (ip), vehicle: saline 110 % of control | endpoint: mean survival time, dose: 12.0 mg/kg/injection, schedule: Q01DX001 (ip), vehicle: saline 94 % of control and 111 % of control | endpoint: mean survival time, dose: 12.0 mg/kg/injection, schedule: Q01DX Z (im), vehicle: saline 97 % of control | endpoint: mean survival time, dose: 12.0 mg/kg/injection, schedule: Q01DX Z (oral), vehicle: saline 109 % of control | endpoint: mean survival time, dose: 12.0 mg/kg/injection, schedule: Q02DX010 (ip), vehicle: saline 111 % of control | endpoint: mean survival time, dose: 12.0 mg/kg/injection, schedule: Q03DX Z (ip), vehicle: saline 107 % of control | endpoint: mean survival time, dose: 12.5 mg/kg/injection, schedule: Q01DX001 (ip), vehicle: saline 96 % of control | endpoint: mean survival time, dose: 12.5 mg/kg/injection, schedule: Q01DX009 (ip), vehicle: saline 110 % of control | endpoint: mean survival time, dose: 12.5 mg/kg/injection, schedule: Q01DX Z (ip), vehicle: carboxymethylcellulose (CMC) 101 % of control | endpoint: mean survival time, dose: 12.6 mg/kg/injection, schedule: Q01DX009 (ip), vehicle: saline 110 % of control | endpoint: mean survival time, dose: 12.6 mg/kg/injection, schedule: Q01DX Z (ip), vehicle: saline 110 % of control | endpoint: mean survival time, dose: 15.0 mg/kg/injection, schedule: Q01DX Z (ip), vehicle: methylcellulose (MC) 100 % of control | endpoint: mean survival time, dose: 15.0 mg/kg/injection, schedule: Q04DX002 (ip), vehicle: saline 103 % of control | endpoint: mean survival time, dose: 15.0 mg/kg/injection, schedule: Q07DX Z (ip), vehicle: saline 107 % of control | endpoint: mean survival time, dose: 18.75 mg/kg/injection, schedule: Q01DX001 (ip), vehicle: water 103 % of control | endpoint: mean survival time, dose: 18.76 mg/kg/injection, schedule: Q02DX010 (ip), vehicle: saline 112 % of control | endpoint: mean survival time, dose: 19.0 mg/kg/injection, schedule: Q02DX010 (ip), vehicle: saline 110 % of control | endpoint: mean survival time, dose: 20.0 mg/kg/injection, schedule: Q01DX Z (ip), vehicle: methylcellulose (MC) 98 % of control | endpoint: mean survival time, dose: 22.5 mg/kg/injection, schedule: Q01DX001 (ip), vehicle: saline 106 % of control and 109 % of control | endpoint: mean survival time, dose: 22.5 mg/kg/injection, schedule: Q## X Z (ip), vehicle: saline 105 % of control | endpoint: mean survival time, dose: 25.0 mg/kg/injection, schedule: Q01DX006 (iv), vehicle: saline 103 % of control | endpoint: mean survival time, dose: 25.0 mg/kg/injection, schedule: Q01DX Z (im), vehicle: saline 113 % of control | endpoint: mean survival time, dose: 25.0 mg/kg/injection, schedule: Q04DX003 (ip), vehicle: saline 104 % of control | endpoint: mean survival time, dose: 28.5 mg/kg/injection, schedule: Q01DX Z (ip), vehicle: carboxymethylcellulose (CMC) 114 % of control | endpoint: mean survival time, dose: 37.0 mg/kg/injection, schedule: Q01DX001 (ip), vehicle: water 114 % of control | endpoint: mean survival time, dose: 37.5 mg/kg/injection, schedule: Q01DX001 (ip), vehicle: saline with Tween-80 112 % of control | endpoint: mean survival time, dose: 37.5 mg/kg/injection, schedule: Q01DX001 (ip), vehicle: water 114 % of control | endpoint: mean survival time, dose: 45.0 mg/kg/injection, schedule: Q13HX018 (ip), vehicle: saline 107 % of control | endpoint: mean survival time, dose: 45.0 mg/kg/injection, schedule: Q## X Z (ip), vehicle: saline 105 % of control | endpoint: mean survival time, dose: 50.0 mg/kg/injection, schedule: Q01DX Z (ip), vehicle: methylcellulose (MC) 112 % of control | endpoint: mean survival time, dose: 67.5 mg/kg/injection, schedule: Q## X006 (ip), vehicle: saline 100 % of control | endpoint: mean survival time, dose: 86.0 mg/kg/injection, schedule: Q01DX001 (ip), vehicle: saline 112 % of control | endpoint: mean survival time, dose: 90.0 mg/kg/injection, schedule: Q01DX009 (ip), vehicle: saline 107 % of control | endpoint: mean survival time, dose: 90.0 mg/kg/injection, schedule: Q01DX Z (ip), vehicle: saline 98 % of control | endpoint: mean survival time, dose: 90.0 mg/kg/injection, schedule: Q02DX010 (ip), vehicle: carboxymethylcellulose (CMC) 105 % of control | endpoint: mean survival time, dose: 97.0 mg/kg/injection, schedule: Q02DX010 (ip), vehicle: carboxymethylcellulose (CMC) 107 % of control | endpoint: mean survival time, dose: 97.0 mg/kg/injection, schedule: Q02DX010 (ip), vehicle: other 98 % of control | endpoint: mean survival time, dose: 100.0 mg/kg/injection, schedule: Q01DX Z (ip), vehicle: methylcellulose (MC) 108 % of control | endpoint: mean survival time, dose: 100.0 mg/kg/injection, schedule: Q01DX Z (oral), vehicle: saline 107 % of control | endpoint: mean survival time, dose: 135.0 mg/kg/injection, schedule: Q02DX010 (ip), vehicle: saline 111 % of control | endpoint: mean survival time, dose: 180.0 mg/kg/injection, schedule: Q01DX009 (ip), vehicle: saline 96 % of control | endpoint: mean survival time, dose: 180.0 mg/kg/injection, schedule: Q01DX010 (ip), vehicle: saline 102 % of control | endpoint: mean survival time, dose: 200.0 mg/kg/injection, schedule: Q01DX009 (ip), vehicle: saline 93 % of control | endpoint: mean survival time, dose: 200.0 mg/kg/injection, schedule: Q01DX Z (ip), vehicle: saline 100 % of control | endpoint: mean survival time, dose: 320.0 mg/kg/injection, schedule: Q04DX003 (ip), vehicle: saline 111 % of control | endpoint: mean survival time, dose: 360.0 mg/kg/injection, schedule: Q01DX001 (ip), vehicle: saline 113 % of control | endpoint: mean survival time, dose: 400.0 mg/kg/injection, schedule: Q04DX002 (ip), vehicle: saline 100 % of control | endpoint: mean survival time, dose: 468.0 mg/kg/injection, schedule: Q04DX002 (ip), vehicle: saline 111 % of control | endpoint: mean survival time, dose: 900.0 mg/kg/injection, schedule: Q01DX001 (ip), vehicle: saline 102 % of control | endpoint: median survival time, dose: 5.0 mg/kg/injection, schedule: Q01DX009 (ip), vehicle: saline 101 % of control and 110 % of control | endpoint: median survival time, dose: 10.0 mg/kg/injection, schedule: Q01DX001 (ip), vehicle: saline 99 % of control and 100 % of control | endpoint: median survival time, dose: 20.0 mg/kg/injection, schedule: Q01DX001 (ip), vehicle: saline 106 % of control | endpoint: median survival time, dose: 50.0 mg/kg/injection, schedule: Q08DX003 (ip), vehicle: saline 95 % of control and 97 % of control | endpoint: median survival time, dose: 90.0 mg/kg/injection, schedule: Q01DX009 (ip), vehicle: saline 105 % of control and 112 % of control | endpoint: median survival time, dose: 180.0 mg/kg/injection, schedule: Q01DX009 (ip), vehicle: saline 93 % of control
